Experiment [1] concerns Botrytis spp. Nature of the experiment: Cherry inoculation assays 2 and 4: Botrytis spp. fruit rot of ‘Sweet Valentine’ cherries, dip treatment. The conditions noted are these: Assay 2, cherries, cumulative after 13 days; nil 35%; not significantly reduced (P>0.05). It is filed as in vivo. The protocol:
Fruit-based screening assays were conducted in laboratories at the Plant and Food Research Ruakura Research Centre, Hamilton, New Zealand (PFR). PFR assays focused on dip treatment application of YBCA5 and fungicide controls.
Fruit for Monilinia fructicola and Botrytis spp. inoculation assays were carried out on sweet cherries (Prunus avium ‘Sweet Valentine’) that were picked at the harvest mature stage and sourced from the PFR Clyde Research Orchard in Central Otago on 8 Jan. 2016 for fruit based assays 1 and 2. A second harvest was carried out on 13 Jan. 2016 for fruit based assays 3 and 4.
Each cherry was then subjected to a double wash process. Wash one consisted of 10 minutes in tap water on a rotary shaker (110 rpm) followed by a five minute wash in SDW (Wash 2). […]
A Botrytis spp. culture (isolate code 09-2), which had been originally isolated from an infected kiwifruit located in the Bay of Plenty region during the 2000s, was used for the spray inoculation assays included in this section carried out on cherries. […] This stock suspension was then filtered using a 70 μm cell strainer (70 μm mesh) to remove mycelial fragments, the concentration determined using a haemocytometer and then adjusted, by dilution with SDW+Tw 80 (0.01% v/v) to a final concentration of 1×10^5 conidia/mL. […]

Experiment [2] concerns Botrytis spp. Nature of the experiment: Assay 8: wound protection of ‘Hongyang’ kiwifruit, Botrytis spp. The class given is in vivo. The conditions noted are these: wounded ‘Hongyang’ kiwifruit, treatment 24 h before Botrytis spp., 6 days incubation. The protocol:
The kiwifruit ‘Hongyang’-based screening assays (assays 8 and 9) were conducted in laboratories at the Plant and Food Research Ruakura Research Centre, Hamilton, New Zealand (PFR). PFR assays focused on wound application of YBCA5 treatment, a commercial biological control treatment and a fungicide were used as comparative controls.
The ‘Hongyang’ kiwifruit were sourced from the PFR Riwaka Research Orchard in Motueka on 12 Apr. 2017 for fruit based assays 8 and 9. Penicillium spp. Phomopsis spp., Alternaria spp., Colletotrichum spp., Cryptosporiopsis spp. and Botrytis spp. inoculation assays were carried out on ‘Hongyang’ kiwifruit that were picked at the harvest mature stage. […]
For assays 8 and 9, two sterile paper towels were placed beneath Plix cut-outs, moistened with 40 mL SDW and each fruit placed in disposable lunch boxes (Plix Extra Deep 45/45, containing five Plix fruit cut-outs to prevent fruit from moving), sealed, then placed into large (40 L) plastic bins which were closed to ensure high relative humidity for the first 24 h and incubated on the lab bench at 24° C. […] After 6 days, (Alternaria spp. Botrytis spp., Penicillium spp., Phomopsis spp., Colletotrichum spp.) and 7 days (Cryptosporiopsis spp.), the severity of fungal rot was assessed for each treatment by measuring the lesion length (mm) along the axis of the fruit. […]

Molecules are shown by their SMILES.

As to `CC(C)NC(=O)N1CC(=O)N(c2cc(Cl)cc(Cl)c2)C1=O` [iprodione], the “incidence of Botrytis spp. fruit rot” value in the experiment on Botrytis spp. [1] is listed as 22%. The “lesion size, comparison between treatments” value in the experiment with Botrytis spp. [2] is reported as “significantly smaller than the untreated control”.
